According to PubChem BioAssay (NCI):
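Values below derive from 48-hour exposures of cells grown in 96-well plates, with endpoints linearly interpolated between the two concentrations bracketing the appropriate inhibition level. Definition used: TGI = concentration required for complete inhibition of growth.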

Tests used:
Assay in all cases: DTP human tumour cell line panel, 48 h
[1] = system: 786-0 renal
[2] = system: A498 renal
[3] = system: A549 NSCLC
[4] = system: ACHN renal
[5] = system: CAKI-1 renal
[6] = system: CCRF-CEM leukemia
[7] = system: COLO 205 colon
[8] = system: DLD-1 colon
[9] = system: DMS 114 small cell lung
[10] = system: DMS 273 small cell lung
[11] = system: EKVX NSCLC
[12] = system: HCC-2998 colon
[13] = system: HCT-116 colon
[14] = system: HCT-15 colon
[15] = system: HL-60(TB) leukemia
[16] = system: HOP-18 NSCLC
[17] = system: HOP-62 NSCLC
[18] = system: HOP-92 NSCLC
[19] = system: HT29 colon
[20] = system: IGROV1 ovarian
[21] = system: K-562 leukemia
[22] = system: KM12 colon
[23] = system: KM20L2 colon
[24] = system: LOX IMVI melanoma
[25] = system: LXFL 529 NSCLC
[26] = system: M14 melanoma
[27] = system: M19-MEL melanoma
[28] = system: MALME-3M melanoma
[29] = system: MOLT-4 leukemia
[30] = system: NCI-H226 lung
[31] = system: NCI-H23 lung
[32] = system: NCI-H460 lung
[33] = system: NCI-H522 lung
[34] = system: OVCAR-3 ovarian
[35] = system: OVCAR-4 ovarian
[36] = system: OVCAR-5 ovarian
[37] = system: OVCAR-8 ovarian
[38] = system: RPMI-8226 leukemia
[39] = system: SF-268 CNS
[40] = system: SF-295 CNS
[41] = system: SF-539 CNS
[42] = system: SK-MEL-2 melanoma
[43] = system: SK-MEL-28 melanoma
[44] = system: SK-MEL-5 melanoma
[45] = system: SK-OV-3 ovarian
[46] = system: SN12C renal
[47] = system: SNB-19 CNS
[48] = system: SNB-75 CNS
[49] = system: SNB-78 CNS
[50] = system: SR leukemia
[51] = system: SW-620 colon
[52] = system: TK-10 renal
[53] = system: U251 CNS
[54] = system: UACC-257 melanoma
[55] = system: UACC-62 melanoma
[56] = system: XF 498 CNS
[57] = system: RXF 393 renal
[58] = system: UO-31 renal

Cc1cc(O)c(C=O)c(C)c1CCC1(C)C=Cc2cc(O)ccc2O1 (configuration not stated)
TGI [1]: > 100 µM | TGI [2]: > 100 µM | TGI [3]: > 100 µM | TGI [4]: 38.6 µM | TGI [5]: 37.1 µM | TGI [6]: 48.8 µM | TGI [7]: 30.4 µM | TGI [8]: 38 µM | TGI [9]: 44.7 µM | TGI [10]: 46.4 µM | TGI [11]: 94.4 µM | TGI [12]: 79.2 µM | TGI [13]: 30.9 µM | TGI [14]: 55.1 µM | TGI [15]: 60.3 µM | TGI [16]: 60.5 µM | TGI [17]: 43.2 µM | TGI [18]: 57.9 µM | TGI [19]: 82.2 µM | TGI [20]: > 100 µM | TGI [21]: 67.9 µM | TGI [22]: > 100 µM | TGI [23]: 57.4 µM | TGI [24]: 40.3 µM | TGI [25]: 29.8 µM | TGI [26]: 35 µM | TGI [27]: > 100 µM | TGI [28]: 71.4 µM | TGI [29]: 50.5 µM | TGI [30]: > 100 µM | TGI [31]: 43.9 µM | TGI [32]: 52.5 µM | TGI [33]: 28.2 µM | TGI [34]: 56.3 µM | TGI [35]: 67 µM | TGI [36]: 79.1 µM | TGI [37]: 31.4 µM | TGI [38]: 56.1 µM | TGI [39]: > 100 µM | TGI [40]: 67.6 µM | TGI [41]: 38.9 µM | TGI [42]: 53.9 µM | TGI [43]: 54 µM | TGI [44]: 71.2 µM | TGI [45]: 85.6 µM | TGI [46]: > 100 µM | TGI [47]: > 100 µM | TGI [48]: 94.1 µM | TGI [49]: 86.4 µM | TGI [50]: > 100 µM | TGI [51]: 45 µM | TGI [52]: > 100 µM | TGI [53]: 48.8 µM | TGI [54]: 53.7 µM | TGI [55]: 43 µM | TGI [56]: 52.7 µM

O=C1C(=Cc2cccs2)C(=O)N(CCc2ccccc2)S(=O)(=O)N1CCc1ccccc1
TGI [1]: > 50 µM | TGI [3]: > 50 µM | TGI [4]: > 50 µM | TGI [6]: > 50 µM | TGI [7]: > 50 µM | TGI [8]: > 50 µM | TGI [9]: 22.2 µM | TGI [10]: > 50 µM | TGI [11]: > 50 µM | TGI [12]: > 50 µM | TGI [13]: 30.4 µM | TGI [14]: > 50 µM | TGI [15]: 38.4 µM | TGI [16]: > 50 µM | TGI [18]: > 50 µM | TGI [19]: > 50 µM | TGI [20]: 16.5 µM | TGI [21]: > 50 µM | TGI [22]: > 50 µM | TGI [23]: > 50 µM | TGI [24]: > 50 µM | TGI [25]: > 50 µM | TGI [26]: > 50 µM | TGI [27]: > 50 µM | TGI [28]: > 50 µM | TGI [29]: > 50 µM | TGI [30]: > 50 µM | TGI [31]: > 50 µM | TGI [32]: > 50 µM | TGI [33]: > 50 µM | TGI [34]: > 50 µM | TGI [35]: > 50 µM | TGI [36]: > 50 µM | TGI [37]: > 50 µM | TGI [38]: > 50 µM | TGI [57]: > 50 µM | TGI [39]: > 50 µM | TGI [40]: > 50 µM | TGI [41]: > 50 µM | TGI [42]: > 50 µM | TGI [43]: > 50 µM | TGI [44]: > 50 µM | TGI [45]: > 50 µM | TGI [46]: > 50 µM | TGI [47]: > 50 µM | TGI [48]: > 50 µM | TGI [49]: > 50 µM | TGI [50]: > 50 µM | TGI [51]: > 50 µM | TGI [52]: > 50 µM | TGI [53]: 35.2 µM | TGI [54]: > 50 µM | TGI [55]: > 50 µM | TGI [58]: > 50 µM | TGI [56]: > 50 µM

C[Si](C)(c1ccccc1)C1CC(=O)CC(=O)C1
TGI [1]: 49.9 µM | TGI [3]: > 100 µM | TGI [4]: > 100 µM | TGI [5]: > 100 µM | TGI [6]: > 100 µM | TGI [7]: > 100 µM | TGI [8]: > 100 µM | TGI [9]: > 100 µM | TGI [10]: > 100 µM | TGI [11]: > 100 µM | TGI [12]: > 100 µM | TGI [13]: > 100 µM | TGI [14]: > 100 µM | TGI [15]: 43.3 µM | TGI [16]: > 100 µM | TGI [17]: > 100 µM | TGI [19]: > 100 µM | TGI [20]: 48.3 µM | TGI [21]: > 100 µM | TGI [22]: > 100 µM | TGI [23]: > 100 µM | TGI [24]: 42.5 µM | TGI [25]: > 100 µM | TGI [26]: > 100 µM | TGI [27]: > 100 µM | TGI [28]: > 100 µM | TGI [29]: > 100 µM | TGI [30]: > 100 µM | TGI [31]: > 100 µM | TGI [32]: > 100 µM | TGI [33]: 60.8 µM | TGI [34]: > 100 µM | TGI [35]: > 100 µM | TGI [36]: > 100 µM | TGI [37]: > 100 µM | TGI [38]: > 100 µM | TGI [57]: > 100 µM | TGI [39]: > 100 µM | TGI [40]: > 100 µM | TGI [41]: 34.4 µM | TGI [42]: > 100 µM | TGI [43]: > 100 µM | TGI [44]: > 100 µM | TGI [45]: > 100 µM | TGI [46]: > 100 µM | TGI [47]: > 100 µM | TGI [48]: > 100 µM | TGI [49]: > 100 µM | TGI [50]: > 100 µM | TGI [51]: > 100 µM | TGI [52]: > 100 µM | TGI [53]: > 100 µM | TGI [54]: > 100 µM | TGI [55]: > 100 µM | TGI [58]: 37.6 µM | TGI [56]: > 100 µM
